{"source": "patent US20200371122A1", "about": "“BIOMARKER FOR SENESCENT CELLS” (Buck Institute for Research on Aging, priority 2017, published 2020)", "key": {"MDA-MB-231": {"tested_on": "MDA-MB-231", "experiment": "Cleaved caspase-3 immunofluorescence in breast cancer cells", "assay_type": "cell-based, human", "conditions": "p53-mutant cell line, 10 μM, 3 days", "method": "(§1) Human fetal lung fibroblasts (IMR-90) were cultured in Dulbecco's modified eagle medium (DMEM) supplemented with 10% FBS and penicillin/streptomycin. LL 29 (AnHa) cells were obtained from the ATCC and growth to confluence using the ATCC protocol, but were subcultured as described for IMR-90 before initiation of all experiments. Quiescence was induced by replacing culture media with media containing 0.2% FBS. MCF-7 and MDA-MB-231 breast cancer cells were cultured in RPMI supplemented with 10% FBS and penicillin/streptomycin. All cells were cultured at 3% O2, and used between 25 and 40 population doublings. All cells were mycoplasma free.\n(§2) For EdU labeling, cells were cultured with EdU (10 μM) for 24 h, fixed in 4% buffered formalin for 10 min, washed in PBS, and permeabilized in 0.5% Triton X-100 for 30 min. Cells were treated as instructed by the manufacturer Life Technologies Cat #C10337). For immunofluorescence, cells were blocked in 10% normal goat serum for 30 min, washed, and incubated overnight in antibodies to Ki67 (Abcam) or cleaved caspase 3 (Cell Signaling). Cell were then washed, incubated in fluorescent secondary antibodies, and mounted using vectashield mounting medium with DAPI."}, "MCF7": {"tested_on": "MCF7", "experiment": "Cleaved caspase-3 immunofluorescence in breast cancer cells", "assay_type": "cell-based, human", "conditions": "p53-positive cell line, 10 μM, 3 days", "method": "as §1, §2"}, "[1]": {"tested_on": "bleomycin-induced fibrosis", "conditions": "administration; Kida 2016, Genovese 2005; cited from earlier work"}}, "data": [{"smiles": "CCCCC/C=C/C=C1/C(=O)C=C[C@@H]1C/C=C\\CCCC(=O)O", "note": "[15d-PGJ2]", "values": [{"measurement": "apoptosis (cleaved caspase-3)", "setting": "MDA-MB-231", "result": "induced apoptosis"}, {"measurement": "apoptosis (cleaved caspase-3)", "setting": "MCF7", "result": "did not"}, {"measurement": "bleomycin-induced fibrosis", "setting": "[1]", "result": "attenuate"}]}]}
